Data set [1] relates to HeLa (human cervical cancer) cells. Briefly: MTT cell viability assay, HeLa. It is filed as cell-based. As to conditions: 44 h + 4 h MTT, read-out: IC50 (50% inhibition of cell viability). The procedure:
(§1) HeLa, A549, A549R, MCF-7 and HepG2 cells were obtained from Experimental Animal Centre of Sun Yat-Sen University (Guangzhou, China). Cells were cultured in DMEM (Dulbecco’s modified Eagle’s medium, Gibco BRL) or RPMI 1640 (Roswell Park Memorial Institute 1640, Gibco BRL) medium, containing 10% FBS (fetal bovine serum, Gibco BRL), 100 μg/mL streptomycin and 100 U/mL penicillin (Gibco BRL).
(§2) The cytotoxicity of the tested complexes towards different cell lines was determined by MTT assay. Cells were cultured in 96-well plates for 24 h. Cells were incubated with a series of concentrations of complexes for another 44 h. 20 μL MTT solution (5 mg/mL) was added into each well and incubated for another 4 h. Then culture media was removed and 150 μL DMSO was added into each well. The plate was shaken for 10 min. The absorbance at 595 nm was measured by a microplate reader.
For orientation: Tetrazolium dyes change colour on reduction, which living cells bring about.

In data set [2] the test system is A549 (human lung adenocarcinoma epithelial) cells. Briefly: MTT cell viability assay, A549. The format is cell-based. Conditions: 44 h + 4 h MTT, read-out: IC50 (50% inhibition of cell viability). The procedure:
as §1, §2

For data set [3], the system named is A549 cells. Put plainly: Inhibition of autophagy by 3-MA, MTT cell viability. It is filed as cell-based, human. As to conditions: A549, 3-MA pre-treatment 1 h, 24 h. The procedure: Autophagy is a complicated biological process, which can play either pro-survival or pro-death roles in anticancer therapy. 3-methyladenine (3-MA), a specific class III PI3K inhibitor that can block autophagosome formation, was used to investigate the relationship between autophagy and anti-proliferative activities of 4a and 4b[51]. The anti-proliferative effects are diminished by pre-treatment of A549 cells with 3-MA (5 mM) for 1 h (Fig. 8F). Cell viabilities increase by approximately 1.09−fold and 1.13−fold for 4a (2 μM, 24 h) and 4b (2 μM, 24 h), respectively.
Cells were cultured in a 96-well plate and grown to confluence. Cells were pre-treated with or without 3-MA (5 mM) for 1 h, then incubated with the complexes at the indicated concentrations for 24 h. Cell viability was measured by MTT assay.

Data set [4] deals with HepG2 (human hepatocellular liver carcinoma) cells. Put plainly: MTT cell viability assay, HepG2. As to conditions: 44 h + 4 h MTT, read-out: IC50 (50% inhibition of cell viability). It is filed as cell-based. The procedure:
as §1, §2

Data set [5] relates to A549R (cisplatin-resistant A549) cells. Briefly: MTT cell viability assay, A549R. The format is cell-based, human. As to conditions: 44 h + 4 h MTT, read-out: IC50 (50% inhibition of cell viability). As to the method:
as §1, §2

Data set [6] relates to MCF-7 (human breast adenocarcinoma) cells. Put plainly: MTT cell viability assay, MCF-7. It is filed as cell-based. As to conditions: MCF-7, MTT, 44 h + 4 h MTT; read-out: IC50 (50% inhibition of cell viability). The procedure:
as §1, §2

Data set [7] relates to A549 cells. Briefly: Cellular uptake efficacy by ICP-MS. The format is cell-based, human. Conditions: 20 μM, 1 h. As to the method: It has been reported that cellular uptake efficacy of a compound is affected by many factors, such as lipophilicity, polarization and surface area[32]. As iridium is an exogenous element, its cellular uptake level can be quantitatively recorded by ICP-MS (inductively coupled plasma-mass spectrometry)[15]. A549 (human lung adenocarcinoma epithelial) cells were incubated with Ir(III) complexes (20 μM) for 1 h and analysed. Cell penetration capability of these complexes is correlated with the length of ester group and lipophilicity (Fig. 3B).
A549 cells were cultured in 60 mm dishes and incubated for 24 h. The medium was removed and replaced with medium-DMSO (99:1, v/v) containing Ir(III) complexes (20 μM). After 1 h incubation, cells were trypsined and collected in PBS. After counted by hemocytometer, cells were digested with HNO3 (65%, 300 μL) at room temperature for 24 h. The solution was diluted to a final volume of 10 mL with Milli-Q water containing 10 ppb In. The iridium content was measured by ICP-MS using In as the internal reference.

For data set [8], the system named is porcine liver esterase (PLE). Put plainly: Hydrolysis by PLE in vitro (ESI-MS). The format is in vitro ADME. As to conditions: 20 μM, 0.6 units PLE, Tris-HCl 10 mM pH 7.4, 2 h. The procedure:
Ester-modified compounds have been used as prodrugs widely. They can be hydrolysed by a variety of esterases selectively or non-selectively, to release active pharmacophores. Herein, porcine liver esterase (PLE) was used as a model to investigate the hydrolytic process of the ester bonds in Ir(III) complexes. The hydrolysis of ten Ir(III) complexes by PLE were detected by ESI-MS (Supplementary Fig. S14)[28]. Equal amounts of Ir(III) complexes (20 μM, 100 μL) were incubated with PLE (0.6 units) in Tris-HCl solution (10 mM, pH 7.4) for 2 h. […] Other complexes with ester substituents show peaks assigned to intact complexes as well as peaks corresponding to hydrolytic products.
Ir(III) complexes (20 μM) were dissolved in freshly prepared Tris-HCl (10 mM, pH 7.4) buffer. Each sample contained 100 μL Ir(III) solution and 0.6 units PLE. After the samples were incubated at 298 K for 2 h, 400 μL acetone (253 K) was added into each sample to quench the enzymatic hydrolysis. Then the samples were centrifuged at 15000 × g for 10 min. The supernatant was collected and analyzed by ESI-MS.

Data set [9] in a line: Lipophilicity (log Po/w), shake-flask method with ICP-MS. It is filed as physicochemical. As to conditions: n-octanol/PBS. The procedure: According to the Lipinski’s rule, appropriate hydrophilicity and lipophilicity are of vital importance for drugs. Excessive hydrophilicity decreases penetration ability of a drug to cross phospholipid layer membrane. On the contrary, high lipophilicity means poor water solubility, which hinders biomedical applications. The lipophilicity, as represented by the log Po/w values, was determined by the shake-flask method according to a literature procedure. The log Po/w values of these Ir(III) complexes fall between −0.81 and 2.59 (Fig. 3A).
The lipophilicity (log Po/w) was determined by the flask-shaking method and analyzed by ICP-MS. Equal amounts of PBS and n-octanol were shaken in the oscillator for 24 h. The mixture was separated to obtain oil and water phases. The mixtures were centrifuged at 3000 × g for 5 min. Equal volumes of n-octanol and PBS were added to the supernatant. The mixtures were shaken for another 24 h, and then centrifuged at 3000 × g for 5 min. The oil and water phases were separated carefully and dried under vacuum. The dried sample was dissolved by HNO3 (65%, 300 μL) and diluted to a final volume of 10 mL with Milli-Q water containing 10 ppb In. The Ir(III) concentration (Co or Cw) was measured by ICP-MS using In as the internal reference. The Po/w value corresponds to Co/Cw.

For data set [10], the system named is all the cell lines tested (A549, A549R, HeLa, HepG2, MCF-7). Briefly: Cytotoxicity across the cell line panel (MTT). It is filed as cell-based, human. The procedure: The cytotoxicity was evaluated in A549, A549R (cisplatin-resistant A549), HeLa (human cervical cancer), HepG2 (human hepatocellular liver carcinoma) and MCF-7 (human breast adenocarcinoma) cells. Cisplatin was also tested as a positive control. Generally, the anti-proliferative efficacy of Ir(III) complexes is in the following order: 4a ≈ 4b > 5a ≈ 5b > 3b > 3a > 2b > 2a > 1a ≈ 1b, which corresponds to their lipophilicity and cellular uptake efficacy (Table 1). […] Complexes with longer ester substitutions (4a, 5a, 4b and 5b) show much higher cytotoxicity than the other complexes. […] For complexes 1a and 1b, converting the carboxyl acid groups into ester groups can facilitate cellular uptake and improve their anti-proliferative effects. As carboxyl groups are usually deprotonated at physiological pH, the phenomena may be partially attributed to the alteration of molecular charge from neutral/negative to positive under physiological conditions.
The cytotoxicity of the tested complexes towards different cell lines was determined by MTT assay. Cells were cultured in 96-well plates for 24 h. Cells were incubated with a series of concentrations of complexes for another 44 h. 20 μL MTT solution (5 mg/mL) was added into each well and incubated for another 4 h. Then culture media was removed and 150 μL DMSO was added into each well. […] The absorbance at 595 nm was measured by a microplate reader.

Bounds are passed on as bounds.

In general, IC50 refers to the concentration at which inhibition is half-maximal. `N.N.[Cl][Pt][Cl]` [cisplatin, reference compound]: the IC50 came to 25.1 ± 2.2 µM in data set [1]; 23.7 ± 1 µM in data set [2]; 15.8 ± 1.2 µM in data set [4]; 79.4 ± 6.1 µM in data set [5]; 16.8 ± 1.5 µM in [6]. For the same molecule, in data set [3], the “effect of 3-MA pre-treatment on induced cell death” value is recorded as “enhance cell death”.
As to `O=C([O-])c1cc[n+]2c(c1)-c1cc(C(=O)O)cc[n+]1[Ir-3]213([c]2ccccc2-c2cccc[n+]21)[c]1ccccc1-c1cccc[n+]13` [Complex 1a, Ir(ppy)2(Hdcbpy)], the IC50 in data set [1], in data set [2], in data set [4], in [5] and in [6] was > 100 µM each time. Besides, in data set [7], the “cellular uptake level / penetration ability” value is reported as “lowest penetration ability”. In addition, the “hydrolysis of ester bonds by PLE (ESI-MS peaks)” value in data set [8] is given as “remain unchanged”. Also, the “Lipophilicity (log Po/w)” value in [9] is given as -0.81. The “cytotoxicity against all the cell lines tested” value in data set [10] is “inactive”.
As to `O=C([O-])c1cc[n+]2c(c1)-c1cc(C(=O)O)cc[n+]1[Ir-3]213([c]2cc(F)cc(F)c2-c2cccc[n+]21)[c]1cc(F)cc(F)c1-c1cccc[n+]13` [Complex 1b, Ir(dfppy)2(Hdcbpy)], the IC50 in [1], in [2], in data set [4], in data set [5] and in data set [6] was > 100 µM throughout. In [7], the “cellular uptake level / penetration ability” value is listed as “lowest penetration ability”. Further, in data set [8], the “hydrolysis of ester bonds by PLE (ESI-MS peaks)” value is “remain unchanged”. For the same molecule, the “Lipophilicity (log Po/w)” value in [9] was -0.49. In data set [10], the “cytotoxicity against all the cell lines tested” value is “inactive”.
